How the values were obtained:
rabbit liver esterase = experiment: Pyridine-esterase activity assay with rabbit liver esterase; format: biochemical; settings: commercially available rabbit liver esterase
Experimental: Esterase activity assays. Esterase activity was measured in vitro by conversion of either [^14 C]thiazopyr or [^14 C]MON 14300 to their corresponding monoacid. Pyridine-esterase activity was assayed during protein purification and from tissue extracts of transgenic plants. The homogenizing buffer for plant tissues consisted of 100 mM Tris pH 8.0, 1 mM EDTA, 1 mM DTT, and 10% glycerol in water. Plant tissues (1 g/ml buffer) including leaves, seeds, flowers, seedlings, etc. were homogenized in conical centrifuge tubes using a spinning pestle at 4° C. […] Following centrifugation (12,000× g for 3 min), the supernatant was analyzed by HPLC/RAD (radioactivity detection) to resolve the monoacid from the parent herbicide and other metabolites. […]
Purification of pyridine-esterases from porcine and rabbit liver. […] Effluent was monitored by UV (280 nm) and fractions were collected at 1 ml intervals. […] Protein purity was determined by SDS-PAGE on 10 to 15% gradient gels (Pharmacia Biotech) with visualization of proteins by silver staining.
Following anion exchange chromatography, fractions with the highest purity and activity were pooled. […] Effluent fractions from IEF chromatography were analyzed for protein and pyridine-esterase activity. The protein purity of the fractions was determined by SDS-PAGE and IEF-PAGE.

tobacco calli = experiment: Herbicide toxicity to tobacco calli on selection media; format: cell-based; settings: for callus survival: control calli, concentrations above 1 μM, after 3 weeks; for suitable selection concentration for RLE3-expressing transgenic tobacco calli: preliminary experiments
Text: The experimental procedure compared the herbicide toxicity of the pyridines upon exposure to tobacco calli that were transformed with a plasmid DNA, pMON13765 (FIG. 8) containing the RLE3 gene, and tobacco calli controls transformed with isogenic plasmid DNA without the RLE3 gene. The vectors, which also encoded NPTII for kanamycin selection, were introduced via Agrobacterium transformation. Kanamycin resistant calli were cut into pieces of 3-5 mm diameter and transferred onto selection media (Murahige and Skoog basal salt mixture in 0.9% agar) containing 0.01, 0.1, 1.0, or 10.0 μM concentration of either thiazopyr or MON 14300 (1 mM stock solution in DMSO). Plates were placed in a lighted growth chamber maintained at 22° C. […] Most control calli were dead after 3 weeks at pyridine herbicide concentrations above 1 μM. […] Preliminary experiments identified 0.1 μM 14300 or thiazopyr as a suitable selection concentration for identifying transgenic tobacco calli that are expressing the RLE3 esterase. It is believed that any member of the pyridine herbicide family that is deactivated by an esterase, and any esterase gene that can hydrolyze the methylester group of a pyridine herbicide would be able to function in this selection system.

pyridine-esterase [1] = molecular target: T1, pyridine-esterase (Oryctolagus cuniculus, UniProt P12337, A196R/H30K); format: biochemical, rabbit; settings: for hydrolysis by pyridine-esterase (substrate specificity): tobacco line #37437 extract, FIG. 4
T1 construct: made in house; host or cells: transgenic tobacco (Samson) and tomato (UC82B) plants, tissue extracts
T1 sequence (P12337 19-565 H30K/A196R): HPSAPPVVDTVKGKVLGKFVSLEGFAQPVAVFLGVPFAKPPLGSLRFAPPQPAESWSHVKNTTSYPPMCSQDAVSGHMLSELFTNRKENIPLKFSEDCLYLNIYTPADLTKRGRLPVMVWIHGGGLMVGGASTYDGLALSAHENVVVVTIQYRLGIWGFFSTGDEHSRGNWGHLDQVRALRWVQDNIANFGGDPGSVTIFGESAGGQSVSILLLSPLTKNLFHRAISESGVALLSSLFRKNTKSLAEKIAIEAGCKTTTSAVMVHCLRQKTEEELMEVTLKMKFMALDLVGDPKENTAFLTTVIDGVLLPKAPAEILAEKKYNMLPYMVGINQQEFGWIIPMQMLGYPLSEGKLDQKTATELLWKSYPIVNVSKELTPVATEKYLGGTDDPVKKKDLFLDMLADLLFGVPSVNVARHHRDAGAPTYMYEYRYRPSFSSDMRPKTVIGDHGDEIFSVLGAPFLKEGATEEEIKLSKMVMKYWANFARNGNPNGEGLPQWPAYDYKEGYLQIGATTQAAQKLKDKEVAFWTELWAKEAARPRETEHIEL
Experimental: (§1) Esterase activity assays. Esterase activity was measured in vitro by conversion of either [^14 C]thiazopyr or [^14 C]MON 14300 to their corresponding monoacid. Pyridine-esterase activity was assayed during protein purification and from tissue extracts of transgenic plants. The homogenizing buffer for plant tissues consisted of 100 mM Tris pH 8.0, 1 mM EDTA, 1 mM DTT, and 10% glycerol in water. Plant tissues (1 g/ml buffer) including leaves, seeds, flowers, seedlings, etc. were homogenized in conical centrifuge tubes using a spinning pestle at 4° C. Following centrifugation (12,000× g), the supernatant (250 μl) was assayed immediately for esterase activity by incubation with [^14 C]thiazopyr or [^14 C]MON 14300 (4 μg) in 0.1 M Tris pH 8.0 buffer (50 μl) at 37° C. The reaction was sampled (100 μL) at various times (0.5 to 100 hr) to generate a kinetic profile of monoacid formation. The reaction was stopped by addition of 1% trifluoroacetic acid in acetonitrile (v/v, 150 μl). Following centrifugation (12,000× g for 3 min), the supernatant was analyzed by HPLC/RAD (radioactivity detection) to resolve the monoacid from the parent herbicide and other metabolites. Control reactions in the absence of the esterase recovered un-reacted thiazopyr or MON 14300 for the duration of experiments. Esterase activity was also assayed during protein purification following a similar procedure except a single time-point (1-2 hrs) of incubation was selected within the linear range of reaction. In vitro assays also employed three commonly used calorimetric (p-nitrophenyl butyrate) or fluorescent (4-methyl umbelliferyl butyrate and 5-bromo-4-chloro-3-indolylacetate) substrates. These substrates are useful in rapidly and qualitatively detecting general esterase activity.
Tissue extracts from 3 tobacco R1 seedlings were employed for further studies. Two of the lines (#37437 and #37432) expressed high levels of esterase (~0.5%) and one line (#37436) which expressed no pyridine-esterase was used as negative control. Tissue extracts were incubated with [^14 C]MON 14300 and formation of the monoacid monitored with time. […] In comparison, less that 2% monoacid was detected in line (#37436). […] First, pyridine-esterase was capable of driving the hydrolysis reaction to completion with no apparent product inhibition, and second, there was no endogenous esterase activity in tobacco which catalyzed MON 14300 hydrolysis.

pyridine-esterase [2] = molecular target: T1, pyridine-esterase; experiment: Esterase activity in leaf extracts from R0 tomato and tobacco plants; format: biochemical, rabbit; settings: R0 tomato and tobacco plants expressing the 60 kD esterase
Experimental: as §1, with “Esterase activity was also assayed during protein purification following a similar procedure except a single time-point (1-2 hrs) of incubation was selected within the linear range of reaction. In vitro assays also employed three commonly used calorimetric (p-nitrophenyl butyrate) or fluorescent (4-methyl umbelliferyl butyrate and 5-bromo-4-chloro-3-indolylacetate) substrates. These substrates are useful in rapidly and qualitatively detecting general esterase activity.” left out

porcine liver esterase = experiment: Pyridine-esterase activity assay with porcine liver esterase; format: biochemical; settings: for esterase activity against substrate: commercially available preparations of porcine liver esterase
Experimental: as §1
Purification of pyridine-esterases from porcine and rabbit liver. Porcine and rabbit liver esterases, obtained commercially as (NH4)2 SO4 suspensions, were desalted using a disposable SEPHADEX™ G25 size exclusion column (Pharmacia Biotech). Proteins (1 to 10 mg) were initially separated on a strong anion exchange column (MONO Q™, Pharmacia Biotech) at 4° C. The column was linearly programmed in 30 minutes from 0 to 0.4 M KCl in 10 mM Tris buffer, pH 7.4 at a flow rate of 1 m/min. Subsequently, the column was programmed from 0.4 to 1.0 M KCl in 10 min. Effluent was monitored by UV (280 nm) and fractions were collected at 1 ml intervals. Effluent fractions were assayed for protein by Coomassie dye (Bio Rad Laboratory) and for pyridine-esterase activity. Protein purity was determined by SDS-PAGE on 10 to 15% gradient gels (Pharmacia Biotech) with visualization of proteins by silver staining.
Following anion exchange chromatography, fractions with the highest purity and activity were pooled. After desalting, the pooled fractions were further separated by isoelectric focusing (IEF) chromatography on a MONO P™ column (Pharmacia Biotech) at 4° C. IEF chromotography was conducted at different pH ranges (3-9, 4-7, 5.5-6.5 or 4.5-5.5) using appropriate combinations of POLYBUFFERS™ (Pharmacia Biotech) and a flow rate of […]. Effluent fractions from IEF chromatography were analyzed for protein and pyridine-esterase activity. The protein purity of the fractions was determined by SDS-PAGE and IEF-PAGE.

[3] = control vector calli, concentrations above 0.1 μM, after 2-3 weeks
[4] = purified porcine esterase against thiazopyr, double reciprocal plot

Row | SMILES | esterase activity against substrate (rabbit liver esterase) | callus growth (tobacco calli; RLE3 calli, 1.0 to 10 μM) | callus growth (tobacco calli; calli expressing RLE3, 0.1 μM) | callus survival (tobacco calli) | callus growth (tobacco calli; [3]) | suitable selection concentration for RLE3-expressing transgenic tobacco calli (tobacco calli) [µM] | hydrolysis by pyridine-esterase (substrate specificity) (pyridine-esterase [1]) | hydrolysis by leaf extracts (pyridine-esterase [2]) | esterase activity against substrate (porcine liver esterase) | Km (porcine liver esterase; [4]) [µM] | Vmax (porcine liver esterase; [4]) [nmol/min/mg] | hydrolysis to monoacid metabolite (pyridine-esterase [1]; expressing lines #37432 and #37437, FIG. 3) | monoacid formed (pyridine-esterase [1]; tobacco, seedling tissue extract, 100 h) [%] | rate of hydrolysis compared with thiazopyr (porcine liver esterase; commercial porcine liver esterase)
1 | COC(=O)c1c(C(F)F)nc(C(F)(F)F)c(C2=NCCS2)c1CC(C)C [thiazopyr] | active | stunting with reduced shoot development | vigorous growth and shoot development | dead | little growth | 0.1 | clearly hydrolyzed | did demonstrate the hydrolysis | demonstrated activity | 320 | 10.8 |  |  | 
2 | COC(=O)c1c(C(F)F)nc(C(F)(F)F)c(C(=O)n2cccn2)c1CC(C)C [MON 14300] | active | stunting with reduced shoot development | vigorous growth and shoot development | dead | little growth | 0.1 | clearly hydrolyzed | did demonstrate the hydrolysis | demonstrated activity |  |  | efficient hydrolysis | 90 | hydrolyzed faster than thiazopyr
